Source: the NIST ThermoML archive (doi:10.1016/j.tca.2010.08.002)

Settings: for molar entropy: 101.33 kPa, Vacuum adiabatic calorimetry; for Triple point temperature: Adiabatic calorimetry

CCCCn1cc[n+](C)c1.O=S(=O)([O-])C(F)(F)F [1-butyl-3-methylimidazolium trifluoromethanesulfonate]
Settings | molar entropy [J/K/mol]
5 K, Crystal 2 | 0.4944
10 K, Crystal 2 | 3.77
15 K, Crystal 2 | 10.39
20 K, Crystal 2 | 19.26
25 K, Crystal 2 | 29.42
30 K, Crystal 2 | 40.29
35 K, Crystal 2 | 51.44
40 K, Crystal 2 | 62.61
45 K, Crystal 2 | 73.65
50 K, Crystal 2 | 84.51
55 K, Crystal 2 | 95.14
60 K, Crystal 2 | 105.5
65 K, Crystal 2 | 115.6
70 K, Crystal 2 | 125.5
80 K, Crystal 2 | 144.6
90 K, Crystal 2 | 162.8
100 K, Crystal 2 | 180.2
110 K, Crystal 2 | 196.9
130 K, Crystal 1 | 228.7
140 K, Crystal 1 | 243.7
150 K, Crystal 1 | 258.3
160 K, Crystal 1 | 272.5
170 K, Crystal 1 | 286.5
180 K, Crystal 1 | 300.3
190 K, Crystal 1 | 313.8
200 K, Crystal 1 | 327.3
210 K, Crystal 1 | 340.6
220 K, Crystal 1 | 353.9
230 K, Crystal 1 | 367.1
240 K, Crystal 1 | 380.2
250 K, Crystal 1 | 393.3
260 K, Crystal 1 | 406.4
270 K, Crystal 1 | 419.4
280 K, Crystal 1 | 432.5
290 K, Crystal 1 | 445.5
290.98 K, Crystal 1 | 446.8
290.98 K, Liquid | 513.6
298.15 K, Liquid | 523.9
300 K, Liquid | 526.6
310 K, Liquid | 540.7
320 K, Liquid | 554.6
330 K, Liquid | 568.2
340 K, Liquid | 581.5
350 K, Liquid | 594.7
360 K, Liquid | 607.6
370 K, Liquid | 620.3

Settings | Triple point temperature [K]
Crystal 1 | 290.98
Crystal 2 | 120
